In ChEMBL document CHEMBL1201862, “PubChem BioAssay data set” (2004) one finds IC50 data, which are given here for two compounds.

The structures appear in SMILES notation. Active and inactive are the calls of the source. Rule as the data show it: actives have a measured IC50 and inactives only a lower limit.

In this assay the target is Envelope glycoprotein gp160 (Human immunodeficiency virus 1, UniProt Q6QLK5). The assay is described as follows: cell-free HIV fusion peptide-binding blockers – biochemical, uHTS, fluorescence dequenching, […] (AID 1986).
Sequence of Envelope glycoprotein gp160 (Q6QLK5 whole entry, the tested form may be a part): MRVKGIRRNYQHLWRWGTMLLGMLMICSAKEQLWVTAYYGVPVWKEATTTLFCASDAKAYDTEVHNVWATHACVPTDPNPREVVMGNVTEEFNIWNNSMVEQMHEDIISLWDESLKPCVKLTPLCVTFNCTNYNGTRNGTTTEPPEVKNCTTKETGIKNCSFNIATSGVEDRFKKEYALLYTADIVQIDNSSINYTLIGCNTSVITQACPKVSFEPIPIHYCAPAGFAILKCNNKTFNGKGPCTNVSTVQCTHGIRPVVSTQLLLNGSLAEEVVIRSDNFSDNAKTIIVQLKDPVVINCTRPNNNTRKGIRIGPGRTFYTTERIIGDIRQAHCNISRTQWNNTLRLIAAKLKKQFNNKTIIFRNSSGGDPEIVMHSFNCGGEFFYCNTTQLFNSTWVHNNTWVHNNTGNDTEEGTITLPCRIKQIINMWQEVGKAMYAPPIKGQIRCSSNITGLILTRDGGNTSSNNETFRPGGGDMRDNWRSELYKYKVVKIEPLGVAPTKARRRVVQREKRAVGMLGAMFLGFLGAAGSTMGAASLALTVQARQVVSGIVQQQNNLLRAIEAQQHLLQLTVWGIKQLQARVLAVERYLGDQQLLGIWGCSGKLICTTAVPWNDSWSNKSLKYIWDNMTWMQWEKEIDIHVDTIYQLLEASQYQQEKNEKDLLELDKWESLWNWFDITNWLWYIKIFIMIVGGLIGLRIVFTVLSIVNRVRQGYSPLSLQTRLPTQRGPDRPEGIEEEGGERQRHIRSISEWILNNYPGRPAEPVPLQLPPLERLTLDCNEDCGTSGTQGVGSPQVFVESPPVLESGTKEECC

Usually IC50 stands for the concentration needed to halve the response being measured. In the case of `O=C(O)CSc1cc(C(=O)c2cc(F)ccc2O)cn2c(=O)c3c(-c4ccccc4)csc3nc12`, the 50% inhibitory concentration (IC50) is 14.9 µM (active).
The figure for `N#Cc1c(-c2cccs2)nc(SCc2ccc(Cl)cc2)[nH]c1=O` is 11.1 µM (active).
